The subject of one data set is INS-1 tumor mice. Kind of data set: Ex vivo biodistribution in INS-1 tumor mice. More on the design: species or system mouse. The note with it: control group, dissected tissue, γ-counter, 2 h post injection, n = 5, mean ± SD.
The test system of another data set is dipeptidyl-peptidase-IV. The note with it: degraded by dipeptidyl-peptidase-IV via cleavage of two N-terminal residues; cited from earlier work.

With `O=C(NCCN1C(=O)C=CC1=O)c1ccc(F)nc1` [[^18F]FNEM, N-(2-(2,5-Dioxo-2,5-dihydro-1H-pyrrol-1-yl)ethyl)-6-fluoronicotinamide], the “INS-1 tumor uptake (biodistribution)” value in the data set with INS-1 tumor mice came to 23.06 ± 3.87%ID/g.
Take “GLP-1: glucose-dependent hormone released mainly from the small intestine”: in the data set on dipeptidyl-peptidase-IV, the half-life in vivo entry is “less than 2 min”.
